Molecular target: T1, GCS (Homo sapiens, UniProt Q16739)
T1 sequence (Q16739 1-394): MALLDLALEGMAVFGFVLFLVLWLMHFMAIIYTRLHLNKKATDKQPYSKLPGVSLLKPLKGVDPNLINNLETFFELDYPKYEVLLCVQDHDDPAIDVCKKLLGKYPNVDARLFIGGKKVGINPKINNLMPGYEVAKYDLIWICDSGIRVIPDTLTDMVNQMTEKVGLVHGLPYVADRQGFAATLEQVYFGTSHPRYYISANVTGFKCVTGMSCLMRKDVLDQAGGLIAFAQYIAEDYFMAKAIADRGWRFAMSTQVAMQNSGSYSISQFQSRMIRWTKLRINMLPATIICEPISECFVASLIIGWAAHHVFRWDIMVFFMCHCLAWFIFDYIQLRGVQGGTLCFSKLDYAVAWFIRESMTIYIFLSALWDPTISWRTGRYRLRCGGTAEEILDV
Experiment: In vitro potency on GCS (glucosylceramide synthase)
Format: biochemical

SMILES: OC[C@H]1[C@@H](O)[C@H](O)[C@@H](O)CN1CCCCCOCc1ccc(-c2ccccc2)c(F)c1 [AZ-3102]
- inhibitory activity on GCS: low nM
- IC50 (in vitro potency): 2.54 nM
